Source: US20090221069A1, “METHOD FOR AUGMENTING THE ABILITY OF T-CELLS AND OTHER CELLS FOR FIGHTING DISEASE AND INVADE DISEASED ORGANS, FOR ELEVATING CD3 ZETA AND TNF-ALPHA EXPRESSION IN T-CELLS, AND MIXING T-CELL BOOSTING AND KIT PARTICULARLY USEFUL IN SUCH METHOD” (priority 2005, published 2009)
Read-outs that look alike come from different tables or passages of the source. No end group written: not given here.

How the values were obtained:
ion channel = conditions: from manufacturer's data sheets and/or the literature; cited from earlier work
[1] = tested on: normal resting human T-cells; test: Cytokine (TNFα, IFNγ, IL-10, IL-4) secretion by resting T-cells, sandwich ELISA; assay type: cell-based; conditions: for cytokine secretion profile (TNFα, IFNγ, IL-4, IL-10): data not shown; for TNFα secretion in resting normal human T-cells: highest concentration used (DTX-K 100 nM), FIG. 18a
Procedure: Human T-cells: Normal human T-cells were purified from peripheral blood of healthy donors as described (19, 23, 61), and the resulting cell population, containing ≧90% T-cells, was suspended in RPMI medium supplemented with 10% FCS, 1% LGlutamine and antibiotics (Biological Industries, Bet Haemek, Israel) and maintained at 2×10^6 cells/ml (37° C./5% CO2).
Determination of TNFα, IFNγ, IL-10 and IL-4 by ELISA: Freshly-purified normal resting human T-cells (2×10^6/ml) were incubated in 24-well plates (Costar, Corning, N.Y.) and the various channel blockers were added. Importantly, no other stimulating molecule (e.g. phorbol esters, antigens, anti-CD3/CD28 mAbs) was added. Cytokine […] levels were measured in supernatants after 24 hr for TNFα and IFNγ and after 72 hr for IL-10 and IL-4, by quantitative sandwich ELISA (R&D, Minneapolis, Minn.), according to the manufacturer's instructions.

Normal human T-cells = assay type: cell-based
Procedure: Normal human T-cells, isolated from fresh peripheral blood lymphocytes, were treated with 10 nM of neurotransmitters: either GnRH-II or dopamine (30 min or 24 hr at 37° C.). Following this neurotransmitter treatment, the T-cells were washed with phosphate-buffered saline (PBS) and […] with paraformaldehyde (PFA) for 20 min at room temperature (1×10^6 cells resuspended in 50 μl PBS+100 μl 0.5% PFA). The T-cells were then washed again with PBS and subjected to single immunofluorescence staining, using a mouse anti-human TCR/CD3zeta chain subunit (also called CD247) mAb (Serotec) at 1:100 dilution/1×10^6 cells, diluted in 10 μg/ml digitonin (Sigma) cold solution, for 30 min on ice. For isotype control, cells were stained with normal mouse serum (Jackson Immunoresearch Laboratories). The cells were then stained with a fluorescein isothiocyanate (FITC)-conjugated anti-mouse IgG (100 μl of 1:100 dilution; Jackson). Cells stained with the second Ab only served as additional negative controls. Fluorescence profiles were recorded in a FACSort.

[2] = tested on: human cancer growing in SCID mice; assay type: in vivo
human T-cells = conditions: data not shown
[3] = SCID mice, preliminary evidence

O=C(O)c1cc([N+](=O)[O-])ccc1NCCCc1ccccc1 [NPPB]
effective concentrations (ion channel): 100 to 200 µM

CCCCCCCCCCCCCC(=O)O[C@@H]1[C@@H](C)[C@@]2(O)[C@@H](C=C(CO)C[C@]3(O)C(=O)C(C)=C[C@@H]23)[C@@H]2C(C)(C)[C@]12OC(C)=O [PMA]
cytokine secretion profile (TNFα, IFNγ, IL-4, IL-10) [1]: increased secretion of TNFα, IFNγ, IL-4 and IL-10

C=C[C@H]1C[N@@]2CC[C@H]1C[C@H]2[C@H](O)c1ccnc2ccc(OC)cc12 [Quinine]
TNFα secretion in resting normal human T-cells ([1]; 24 hours exposure): somewhat weaker effect
effective concentrations (ion channel): 1 to 10 µM

NCCc1ccc(O)c(O)c1 [dopamine]
number (percentage) of cells expressing CD3zeta (Normal human T-cells): clear increase
number of T-cells expressing CD3zeta, longer-term exposure versus 30 minutes (Normal human T-cells): significantly more pronounced
overall in vivo activity of human tumor-specific T-cells against human cancer (cancer rejection) ([2]; mouse, in vivo): augmented significantly

N[C@@H](CCC(=O)O)C(=O)O [glutamate]
overall in vivo activity of human tumor-specific T-cells against human cancer (cancer rejection) [2, 3]: augmented significantly

Dendrotoxin-K
dose dependence of TNFα secretion triggering ([1]; 24 hours exposure, FIG. 18b): dose dependent
TNFα secretion in resting normal human T-cells ([1]; 24 hours exposure): marked TNFα secretion
TNFα secretion by T-cells from six different individuals ([1]; 24 hr, 100 nM, FIG. 18c-h): triggered marked TNFα secretion
cytokine secretion profile (TNFα, IFNγ, IL-4, IL-10) [1]: selectively increased only TNFα secretion
effect on cell survival of human T-cells (human T-cells): no significant effect
effect on proliferation of human T-cells (human T-cells): no significant effect

GnRH-II (QHWSHGWYPG; ends and bridges not checked; UniProt O43555 24-33, looked up)
intensity of CD3zeta expression (number of CD3zeta per T-cell) (Normal human T-cells; 10 nM, 30 minutes exposure): very significant increase
number (percentage) of cells expressing CD3zeta (Normal human T-cells; 10 nM, 30 minutes exposure, no other molecules): very significant increase
overall in vivo activity of human tumor-specific T-cells against human cancer (cancer rejection) [2, 3]: augmented significantly

Kaliotoxin
TNFα secretion in resting normal human T-cells ([1]; 24 hours exposure): somewhat weaker effect
effective concentrations (ion channel): 0.001 to 0.1 µM
